Experimental findings from patent US8541407B2 (ArQule, Inc., priority 2010, dated 2013) are described below.

The target in the experiment is AKT1 (Homo sapiens (Human), UniProt P31749). In words: Inactive Akt Alpha Screen Assay. As to conditions: non *labeled: Akt Alpha Screen assay; read-out: AKT1 biochemical assay, IC50. In short, it runs like this: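 AKT1 activated in situ by PDK1, MAPKAPK2, lipid vesicles and ATP, then phosphorylating biotinylated crosstide for 30 min at room temperature. Stopped with 10 mM EDTA; phosphopeptide detected by AlphaScreen using phospho-AKT substrate antibody (1:350), Protein A acceptor and streptavidin donor beads, 90 min dark, ex 640/em 570 nm.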
Chain of AKT1 (P31749 whole entry): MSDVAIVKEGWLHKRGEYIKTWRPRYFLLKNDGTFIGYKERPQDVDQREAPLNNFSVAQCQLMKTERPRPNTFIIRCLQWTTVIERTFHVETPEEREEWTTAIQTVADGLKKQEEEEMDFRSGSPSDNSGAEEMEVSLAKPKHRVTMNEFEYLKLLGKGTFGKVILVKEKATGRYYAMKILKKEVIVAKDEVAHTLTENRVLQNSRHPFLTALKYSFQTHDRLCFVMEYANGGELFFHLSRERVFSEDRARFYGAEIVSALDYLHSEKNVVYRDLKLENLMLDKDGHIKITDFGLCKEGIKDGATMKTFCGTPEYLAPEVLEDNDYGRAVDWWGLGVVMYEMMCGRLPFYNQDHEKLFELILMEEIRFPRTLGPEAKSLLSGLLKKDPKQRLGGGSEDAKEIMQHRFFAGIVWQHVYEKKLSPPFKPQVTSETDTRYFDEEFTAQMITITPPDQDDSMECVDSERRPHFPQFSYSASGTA
In the case of `O=C(Nc1ccc2c(c1)CCO2)NC1CCN(Cc2ccc(-c3nnc4n3-c3cccnc3Nc3ccccc3-4)cc2)CC1` [Example 175, 1-(1-(4-(9H-benzo[f]pyrido[2,3-b][1,2,4]triazolo[4,3-d][1,4]diazepin-3-yl)benzyl)piperidin-4-yl)-3-(2,3-dihydrobenzofuran-5-yl)urea], the IC50 (as a rule, the concentration that gives 50% inhibition) worked out at 0.53 µM.
Then `O=C(Nc1cccc(Cl)c1)NC1CCN(Cc2ccc(-c3nnc4n3-c3cccnc3Nc3ccccc3-4)cc2)CC1` [Example 176, 1-(1-(4-(9H-benzo[f]pyrido[2,3-b][1,2,4]triazolo[4,3-d][1,4]diazepin-3-yl)benzyl)piperidin-4-yl)-3-(3-chlorophenyl)urea], with 1.2 µM; and `CCCc1ccccc1NC(=O)NC1CCN(Cc2ccc(-c3nnc4n3-c3cccnc3Nc3ccccc3-4)cc2)CC1` [Example 177, 1-(1-(4-(9H-benzo[f]pyrido[2,3-b][1,2,4]triazolo[4,3-d][1,4]diazepin-3-yl)benzyl)piperidin-4-yl)-3-(2-propylphenyl)urea], with 0.77 µM.
Next, `O=C(Nc1cccc(F)c1)NC1CCN(Cc2ccc(-c3nnc4n3-c3cccnc3Nc3ccccc3-4)cc2)CC1` [Example 178, 1-(1-(4-(9H-benzo[f]pyrido[2,3-b][1,2,4]triazolo[4,3-d][1,4]diazepin-3-yl)benzyl)piperidin-4-yl)-3-(3-fluorophenyl)urea]: 0.79 µM.
Then `Cc1ccccc1NC(=O)NC1CCN(Cc2ccc(-c3nnc4n3-c3cccnc3Nc3ccccc3-4)cc2)CC1` [Example 179, 1-(1-(4-(9H-benzo[f]pyrido[2,3-b][1,2,4]triazolo[4,3-d][1,4]diazepin-3-yl)benzyl)piperidin-4-yl)-3-(o-tolyl)urea], with 0.7 µM.
As to `O=C(NCCc1ccc(Cl)cc1)NC1CCN(Cc2ccc(-c3nnc4n3-c3cccnc3Nc3ccccc3-4)cc2)CC1` [Example 180, 1-(1-(4-(9H-benzo[f]pyrido[2,3-b][1,2,4]triazolo[4,3-d][1,4]diazepin-3-yl)benzyl)piperidin-4-yl)-3-(4-chlorophenethyl)urea], the IC50 worked out at 0.94 µM.
Next, `Cc1ccccc1CNC(=O)NC1CCN(Cc2ccc(-c3nnc4n3-c3cccnc3Nc3ccccc3-4)cc2)CC1` [Example 181, 1-(1-(4-(9H-benzo[f]pyrido[2,3-b][1,2,4]triazolo[4,3-d][1,4]diazepin-3-yl)benzyl)piperidin-4-yl)-3-(2-methylbenzyl)urea]: 1.2 µM; `COc1ccccc1NC(=O)NC1CCN(Cc2ccc(-c3nnc4n3-c3cccnc3Nc3ccccc3-4)cc2)CC1` [Example 183, 1-(1-(4-(9H-benzo[f]pyrido[2,3-b][1,2,4]triazolo[4,3-d][1,4]diazepin-3-yl)benzyl)piperidin-4-yl)-3-(2-methoxyphenyl)urea]: 0.7 µM.
Next, `COc1ccc(NC(=O)NC2CCN(Cc3ccc(-c4nnc5n4-c4cccnc4Nc4ccccc4-5)cc3)CC2)c(C)c1` [Example 184, 1-(1-(4-(9H-benzo[f]pyrido[2,3-b][1,2,4]triazolo[4,3-d][1,4]diazepin-3-yl)benzyl)piperidin-4-yl)-3-(4-methoxy-2-methylphenyl)urea]: 0.84 µM; `Cc1cc(COCc2ccc(-c3nnc4n3-c3cccnc3Nc3ccccc3-4)cc2)no1` [Example 185, 3-(((4-(9H-benzo[f]pyrido[2,3-b][1,2,4]triazolo[4,3-d][1,4]diazepin-3-yl)benzyl)oxy)methyl)-5-methylisoxazole]: 2.1 µM.
Then `c1ccc(OC2CCN(Cc3ccc(-c4nnc5n4-c4cccnc4Nc4ccccc4-5)cc3)CC2)cc1` [Example 188, 3-(4-((4-phenoxypiperidin-1-yl)methyl)phenyl)-9H-benzo[f]pyrido[2,3-b][1,2,4]triazolo[4,3-d][1,4]diazepine], with 0.83 µM; and `c1ccc(OC2CCCN(Cc3ccc(-c4nnc5n4-c4cccnc4Nc4ccccc4-5)cc3)C2)cc1` (stereo not drawn) [Example 189, 3-(4-((3-phenoxypiperidin-1-yl)methyl)phenyl)-9H-benzo[f]pyrido[2,3-b][1,2,4]triazolo[4,3-d][1,4]diazepine], with 0.92 µM.
With `Cc1noc(C2CCCN(Cc3ccc(-c4nnc5n4-c4cccnc4Nc4ccccc4-5)cc3)C2)n1` (stereo not drawn) [Example 190, 5-(1-(4-(9H-benzo[f]pyrido[2,3-b][1,2,4]triazolo[4,3-d][1,4]diazepin-3-yl)benzyl)piperidin-3-yl)-3-methyl-1,2,4-oxadiazole], the IC50 stood at 0.41 µM.
Then `O=c1[nH]c(-c2ccccc2)cn1C1CCN(Cc2ccc(-c3nnc4n3-c3cccnc3Nc3ccccc3-4)cc2)CC1` [Example 191, 1-(1-(4-(9H-benzo[f]pyrido[2,3-b][1,2,4]triazolo[4,3-d][1,4]diazepin-3-yl)benzyl)piperidin-4-yl)-4-phenyl-1H-imidazol-2(3H)-one], with 0.048 µM; and `CC(C)(N)c1ccc(-c2nnc3n2-c2cccnc2Nc2ccccc2-3)cc1` [Example 192, 2-(4-(9H-benzo[f]pyrido[2,3-b][1,2,4]triazolo[4,3-d][1,4]diazepin-3-yl)phenyl)propan-2-amine], with 0.34 µM; and `O=C(Nc1ccccc1)NC1(c2ccc(-c3nnc4n3-c3cccnc3Nc3ccccc3-4)cc2)CCC1` [Example 194, 1-(1-(4-(9H-benzo[f]pyrido[2,3-b][1,2,4]triazolo[4,3-d][1,4]diazepin-3-yl)phenyl)cyclobutyl)-3-phenylurea], with 1.2 µM.
Then `c1ccc2c(c1)Nc1ncccc1-n1c(-c3ccc(C4CCCN4)cc3)nnc1-2` (stereo not drawn) [Example 196, 3-(4-(pyrrolidin-2-yl)phenyl)-9H-benzo[f]pyrido[2,3-b][1,2,4]triazolo[4,3-d][1,4]diazepine], with 1.1 µM; and `O=S(=O)(NC1(c2ccc(-c3nnc4n3-c3cccnc3Nc3ccccc3-4)cc2)CCC1)c1ccc(F)cc1` [Example 197, N-(1-(4-(9H-benzo[f]pyrido[2,3-b][1,2,4]triazolo[4,3-d][1,4]diazepin-3-yl)phenyl)cyclobutyl)-4-fluorobenzenesulfonamide], with 0.58 µM; and `Cc1cccc(S(=O)(=O)NC2(c3ccc(-c4nnc5n4-c4cccnc4Nc4ccccc4-5)cc3)CCC2)c1` [Example 199, N-(1-(4-(9H-benzo[f]pyrido[2,3-b][1,2,4]triazolo[4,3-d][1,4]diazepin-3-yl)phenyl)cyclobutyl)-3-methylbenzenesulfonamide], with 0.46 µM.
Next, `O=C(NC1(c2ccc(-c3nnc4n3-c3cccnc3Nc3ccccc3-4)cc2)CCC1)c1ccc(F)cc1` [Example 200, N-(1-(4-(9H-benzo[f]pyrido[2,3-b][1,2,4]triazolo[4,3-d][1,4]diazepin-3-yl)phenyl)cyclobutyl)-4-fluorobenzamide]: 0.61 µM.
With `CC(C)(C)OC(=O)NC1CCN(Cc2ccc(-c3nnc4n3-c3cccnc3Nc3ccccc3-4)cc2)CC1` [Example 201, tert-butyl (1-(4-(9H-benzo[f]pyrido[2,3-b][1,2,4]triazolo[4,3-d][1,4]diazepin-3-yl)benzyl)piperidin-4-yl)carbamate], the IC50 is 1.9 µM.
Then `O=S(=O)(NC1(c2ccc(-c3nnc4n3-c3cccnc3Nc3ccccc3-4)cc2)CCC1)c1cccc(F)c1` [Example 204, N-(1-(4-(9H-benzo[f]pyrido[2,3-b][1,2,4]triazolo[4,3-d][1,4]diazepin-3-yl)phenyl)cyclobutyl)-3-fluorobenzenesulfonamide], with 0.76 µM; and `Cn1ccc(S(=O)(=O)NC2(c3ccc(-c4nnc5n4-c4cccnc4Nc4ccccc4-5)cc3)CCC2)n1` [Example 205, N-(1-(4-(9H-benzo[f]pyrido[2,3-b][1,2,4]triazolo[4,3-d][1,4]diazepin-3-yl)phenyl)cyclobutyl)-1-methyl-1H-pyrazole-3-sulfonamide], with 0.64 µM.
Then `Cc1cc(C(=O)NC2(c3ccc(-c4nnc5n4-c4cccnc4Nc4ccccc4-5)cc3)CCC2)no1` [Example 206, N-(1-(4-(9H-benzo[f]pyrido[2,3-b][1,2,4]triazolo[4,3-d][1,4]diazepin-3-yl)phenyl)cyclobutyl)-5-methylisoxazole-3-carboxamide], with 0.24 µM; and `c1ccc(-c2nnc(C3CCN(Cc4ccc(-c5nnc6n5-c5cccnc5Nc5ccccc5-6)cc4)CC3)o2)cc1` [Example 207, 2-(1-(4-(9H-benzo[f]pyrido[2,3-b][1,2,4]triazolo[4,3-d][1,4]diazepin-3-yl)benzyl)piperidin-4-yl)-5-phenyl-1,3,4-oxadiazole], with 0.66 µM; and `Cc1ccc2c(c1)-c1nnc(-c3ccc(C4(N)CCC4)cc3)n1-c1cccnc1N2` [Example 216, 1-(4-(12-methyl-9H-benzo[f]pyrido[2,3-b][1,2,4]triazolo[4,3-d][1,4]diazepin-3-yl)phenyl)cyclobutanamine], with 0.96 µM.
For `NC1(c2ccc(-c3nnc4n3-c3cccnc3Nc3ccccc3-4)cc2)CCCCC1` [Example 217, 1-(4-(9H-benzo[f]pyrido[2,3-b][1,2,4]triazolo[4,3-d][1,4]diazepin-3-yl)phenyl)cyclohexanamine], the IC50 was 0.5 µM.
Next, `Cc1cccc2c1Nc1ncccc1-n1c(-c3ccc(C4(N)CCC4)cc3)nnc1-2` [Example 218, 1-(4-(10-methyl-9H-benzo[f]pyrido[2,3-b][1,2,4]triazolo[4,3-d][1,4]diazepin-3-yl)phenyl)cyclobutanamine]: 1.4 µM.
Next, `NC1(c2ccc(-c3nnc4n3-c3cnccc3Nc3ccccc3-4)cc2)CCC1` [Example 220, 1-(4-(9H-benzo[f]pyrido[4,3-b][1,2,4]triazolo[4,3-d][1,4]diazepin-3-yl)phenyl)cyclobutanamine]: 5 µM; `CC(C)(C)OC(=O)NC1(c2ccc(-c3nnc4n3-c3cccnc3Nc3ccccc3-4)cc2)CC1` [Example 221, tert-butyl (1-(4-(9H-benzo[f]pyrido[2,3-b][1,2,4]triazolo[4,3-d][1,4]diazepin-3-yl)phenyl)cyclopropyl)carbamate]: 1.4 µM.
